Patent US9428464B2, “Kynurenine-3-monooxygenase inhibitors, pharmaceutical compositions, and methods of use thereof” (CHDI Foundation, Inc., priority 2011, dated 2016)

Tested on: KMO
Assay: KMO activity assay: L-Kynurenine hydroxylation to 3-Hydroxy-Kynurenine, quantified by LC/MS
Format: biochemical
Conditions: compound at 10 uM; footnote: some portion of activity of amides may be due to contribution of acid precursor
Protocol: A generalized procedure for monitoring L-Kynurenine (KYN) hydroxylation to form product 3-Hydroxy-Kynurenine (3OH-KYN) by LC/MS is described below. Product is quantified by multiple reaction monitoring using MS.
A method of monitoring L-Kynurenine (KYN) hydroxylation to form product 3-Hydroxy-Kynurenine (3OH-KYN) by LC/MS is described below. Product is quantified by multiple reaction monitoring.
• Compound: Stock concentrations: 10 mM in 100% DMSO • Enzyme: KMO enzyme prepared at Evotec via mitochondria isolation from CHO-GST HIS KMO cells • Substrate: L-Kynurenine (Sigma: Cat #K3750) • [stock concentration: 10 mM in 100 mM potassium phosphate buffer, pH 7.4]
A method of monitoring L-Kynurenine (KYN) hydroxylation to form 3-Hydroxy-Kynurenine (3OH-KYN) by LC/MS is described. Product is quantified by multiple reaction monitoring (MRM method).

Q: How did the “% Inhibition at 10 uM” value turn out when `CC1(C)CC(C(N)=O)C(C)(C)N1C(=O)c1cc(-c2ccc(Cl)c(Cl)c2)ncn1` (stereo not shown) [1-[6-(3,4-Dichloro-phenyl)-pyrimidine-4-carbonyl]-2,2,5,5-tetramemyl-pyrrolidine-3-carboxylic acid amide] was run?
A: 98.27%

Q: With `NC(=O)C1CCN(C(=O)c2cc(-c3ccc(Cl)c(Cl)c3)ncn2)C1` (stereo not shown) [1-[6-(3,4-Dichloro-phenyl)-pyrimidine-4-carbonyl]-pyrrolidine-3-carboxylic acid amide] as the compound, how does the “% Inhibition at 10 uM” value read?
A: 101.835%

Q: `O=C(NC1CC1)C1CCN(C(=O)c2cc(-c3ccc(Cl)c(Cl)c3)ncn2)C1` (stereo not shown) [1-[6-(3,4-Dichloro-phenyl)-pyrimidine-4-carbonyl]-pyrrolidine-3-carboxylic acid cyclopropylamide] was tested. Which “% Inhibition at 10 uM” value did it give?
A: 91.815%

Q: How did the “% Inhibition at 10 uM” value turn out when `CNC(=O)C1CCN(C(=O)c2cc(-c3ccc(Cl)c(Cl)c3)ncn2)C1` (stereo not shown) [1-[6-(3,4-Dichloro-phenyl)-pyrimidine-4-carbonyl]-pyrrolidine-3-carboxylic acid methylamide] was run?
A: 83.065%

Q: Which “% Inhibition at 10 uM” value does the source give for `O=C(O)C1CCN(C(=O)c2cc(-c3ccc(Cl)c(Cl)c3)ncn2)C1` (stereo not shown) [1-[6-(3,4-dichloro-phenyl)-pyrimidine-4-carbonyl]-pyrrolidine-3-carboxylic acid] here?
A: 101.855%

Q: Which “% Inhibition at 10 uM” value does the source give for `CON=C(C)c1cc(-c2cccc(Cl)c2)ncn1` [1-[6-(3-Chloro-phenyl)-pyrimidin-4-yl]-ethanone O-methyl-oxime] here?
A: 102.2%

Q: `CC(=O)c1cc(-c2cccc(Cl)c2)ncn1` [1-[6-(3-Chloro-phenyl)-pyrimidin-4-yl]-ethanone] was tested. Which “% Inhibition at 10 uM” value did it give?
A: 97.49%

Q: For `O=C(CCN1CCCC1)N1CCN(C(=O)c2cc(-c3ccc(Cl)c(Cl)c3)ncn2)CC1` [1-{4-[6-(3,4-Dichloro-phenyl)-pyrimidine-4-carbonyl]-piperazin-1-yl}-3-pyrrolidin-1-yl-propan-1-one], which “% Inhibition at 10 uM” value is on record?
A: 68.48%

Q: `CC(=O)N1CCN(C(=O)c2cc(-c3ccc(Cl)c(Cl)c3)ncn2)CC1` [1-{4-[6-(3,4-Dichloro-phenyl)-pyrimidine-4-carbonyl]-piperazin-1-yl}-ethanone] was tested. Which “% Inhibition at 10 uM” value did it give?
A: 100.06%

Q: With `O=C(c1cc(-c2ccc(Cl)c(Cl)c2)ncn1)N1CCN2C(=O)CCC2C1` (stereo not shown) [2-[6-(3,4-Dichloro-phenyl)-pyrimidine-4-carbonyl]-hexahydro-pyrrolo[1,2-a]pyrazin-6-one] as the compound, how does the “% Inhibition at 10 uM” value read?
A: 97.22%

Q: How did the “% Inhibition at 10 uM” value turn out when `CC(C)COC(=O)c1cc(-c2ccc(Cl)c(Cl)c2)ncn1` [2-methylpropyl 6-(3,4-dichlorophenyl)pyrimidine-4-carboxylate] was run?
A: 100%

Q: Which “% Inhibition at 10 uM” value does the source give for `O=C(NS(=O)(=O)c1cccc(Cl)c1)c1cc(-c2ccc(Cl)c(Cl)c2)ncn1` [3-Chloro-N-[6-(3,4-dichloro-phenyl)-pyrimidine-4-carbonyl]-benzenesulfonamide] here?
A: 102.26%

Q: `O=C(NS(=O)(=O)c1cccc(Cl)c1)c1cc(-c2cccc(Cl)c2)ncn1` [3-Chloro-N-[6-(3-chloro-phenyl)-pyrimidine-4-carbonyl]-benzenesulfonamide] was tested. Which “% Inhibition at 10 uM” value did it give?
A: 101.57%

Q: Which “% Inhibition at 10 uM” value does the source give for `O=C1OCc2c1ncnc2-c1ccc(Cl)c(Cl)c1` [4-(3,4-dichloro-phenyl)-5H-furo[3,4-d]pyrimidin-7-one] here?
A: 94%

Q: With `O=C1CN(C(=O)c2cc(-c3ccc(Cl)c(Cl)c3)ncn2)CCN1CCN1CCOCC1` [4-[6-(3,4-Dichloro-phenyl)-pyrimidine-4-carbonyl]-1-(2-morpholin-4-yl-ethyl)-piperazin-2-one] as the compound, how does the “% Inhibition at 10 uM” value read?
A: 98.7%

Q: Which “% Inhibition at 10 uM” value does the source give for `O=C1CN(C(=O)c2cc(-c3ccc(Cl)c(Cl)c3)ncn2)CCN1CCN1CCCC1` [4-[6-(3,4-Dichloro-phenyl)-pyrimidine-4-carbonyl]-1-(2-pyrrolidin-1-yl-ethyl)-piperazin-2-one] here?
A: 99.275%

Q: `O=C1CN(C(=O)c2cc(-c3ccc(Cl)c(Cl)c3)ncn2)CCN1CC1CCOCC1` [4-[6-(3,4-Dichloro-phenyl)-pyrimidine-4-carbonyl]-1-(tetrahydro-pyran-4-ylmethyl)-piperazin-2-one] was tested. Which “% Inhibition at 10 uM” value did it give?
A: 99.91%

Q: How did the “% Inhibition at 10 uM” value turn out when `CN1CCN(C(=O)c2cc(-c3ccc(Cl)c(Cl)c3)ncn2)CC1=O` [4-[6-(3,4-Dichloro-phenyl)-pyrimidine-4-carbonyl]-1-methyl-piperazin-2-one] was run?
A: 87.44%

Q: With `CC1C(=O)NCCN1C(=O)c1cc(-c2ccc(Cl)c(Cl)c2)ncn1` (stereo not shown) [4-[6-(3,4-Dichloro-phenyl)-pyrimidine-4-carbonyl]-3-methyl-piperazin-2-one] as the compound, how does the “% Inhibition at 10 uM” value read?
A: 97.9%

Q: How did the “% Inhibition at 10 uM” value turn out when `O=C1CN(C(=O)c2cc(-c3ccc(Cl)c(Cl)c3)ncn2)CCN1` [4-[6-(3,4-Dichloro-phenyl)-pyrimidine-4-carbonyl]-piperazin-2-one] was run?
A: 101.6%

Q: How did the “% Inhibition at 10 uM” value turn out when `O=C1CN(C(=O)c2cc(-c3ccc(F)c(F)c3)ncn2)CCN1` [4-[6-(3,4-Difluoro-phenyl)-pyrimidine-4-carbonyl]-piperazin-2-one] was run?
A: 100.995%

Q: For `O=C1CN(C(=O)c2cc(-c3cccc(Br)c3)ncn2)CCN1` [4-[6-(3-Bromo-phenyl)-pyrimidine-4-carbonyl]-piperazin-2-one], which “% Inhibition at 10 uM” value is on record?
A: 96.625%

Q: With `O=C1CN(C(=O)c2cc(-c3ccc(F)c(Cl)c3)ncn2)CCN1` [4-[6-(3-Chloro-4-fluoro-phenyl)-pyrimidine-4-carbonyl]-piperazin-2-one] as the compound, how does the “% Inhibition at 10 uM” value read?
A: 100.85%

Q: With `O=C(N[C@H]1CCCc2ccccc21)c1cc(-c2ccc(Cl)c(Cl)c2)ncn1` [6-(3,4-Dichloro-phenyl)-pyrimidine-4-carboxylic acid (1,2,3,4-tetrahydro-naphthalen-1S-yl)-amide] as the compound, how does the “% Inhibition at 10 uM” value read?
A: 95.92%

Q: For `O=C(NC1CN2CCC1CC2)c1cc(-c2ccc(Cl)c(Cl)c2)ncn1` (stereo not shown) [6-(3,4-Dichloro-phenyl)-pyrimidine-4-carboxylic acid (1-aza-bicyclo[2.2.2]oct-3-yl)-amide], which “% Inhibition at 10 uM” value is on record?
A: 100.905%

Q: `Cl.O=C(NCC12CCN(CC1)CC2)c1cc(-c2ccc(Cl)c(Cl)c2)ncn1` [6-(3,4-Dichloro-phenyl)-pyrimidine-4-carboxylic acid (1-aza-bicyclo[2.2.2]oct-4-ylmethyl)-amide hydrochloride salt] was tested. Which “% Inhibition at 10 uM” value did it give?
A: 65.78%

Q: `Cn1nc(NC(=O)c2cc(-c3ccc(Cl)c(Cl)c3)ncn2)c2ccccc21` [6-(3,4-Dichloro-phenyl)-pyrimidine-4-carboxylic acid (1-methyl-1H-indazol-3-yl)-amide] was tested. Which “% Inhibition at 10 uM” value did it give?
A: 93.95%

Q: `Cn1ccc(NC(=O)c2cc(-c3ccc(Cl)c(Cl)c3)ncn2)n1` [6-(3,4-Dichloro-phenyl)-pyrimidine-4-carboxylic acid (1-methyl-1H-pyrazol-3-yl)-amide] was tested. Which “% Inhibition at 10 uM” value did it give?
A: 100.05%

Q: For `O=C(NC1(c2ccccc2)CC1)c1cc(-c2ccc(Cl)c(Cl)c2)ncn1` [6-(3,4-Dichloro-phenyl)-pyrimidine-4-carboxylic acid (1-phenyl-cyclopropyl)-amide], which “% Inhibition at 10 uM” value is on record?
A: 96.68%

Q: Which “% Inhibition at 10 uM” value does the source give for `CC(NC(=O)c1cc(-c2ccc(Cl)c(Cl)c2)ncn1)C1CCNCC1.Cl` (stereo not shown) [6-(3,4-Dichloro-phenyl)-pyrimidine-4-carboxylic acid (1-piperidin-4-yl-ethyl)-amide hydrochloride salt] here?
A: 85.09%

Q: `CC1(C)CC(NC(=O)c2cc(-c3ccc(Cl)c(Cl)c3)ncn2)CC(C)(C)N1.Cl` [6-(3,4-Dichloro-phenyl)-pyrimidine-4-carboxylic acid (2,2,6,6-tetramethyl-piperidin-4-yl)-amide hydrochloride salt] was tested. Which “% Inhibition at 10 uM” value did it give?
A: 99.59%

Q: With `CC1(C)CC(NC(=O)c2cc(-c3ccc(Cl)c(Cl)c3)ncn2)CC(C)(C)N1` [6-(3,4-Dichloro-phenyl)-pyrimidine-4-carboxylic acid (2,2,6,6-tetramethyl-piperidin-4-yl)-amide] as the compound, how does the “% Inhibition at 10 uM” value read?
A: 100.11%

Q: Which “% Inhibition at 10 uM” value does the source give for `Cc1cc(C)c(NC(=O)c2cc(-c3ccc(Cl)c(Cl)c3)ncn2)c(C)c1` [6-(3,4-Dichloro-phenyl)-pyrimidine-4-carboxylic acid (2,4,6-trimethyl-phenyl)-amide] here?
A: 70.84%

Q: How did the “% Inhibition at 10 uM” value turn out when `Cc1ccnc(C)c1NC(=O)c1cc(-c2ccc(Cl)c(Cl)c2)ncn1` [6-(3,4-Dichloro-phenyl)-pyrimidine-4-carboxylic acid (2,4-dimethyl-pyridin-3-yl)-amide] was run?
A: 85.37%

Q: With `CN(CCN)C(=O)c1cc(-c2ccc(Cl)c(Cl)c2)ncn1.O=C(O)C(F)(F)F` [6-(3,4-Dichloro-phenyl)-pyrimidine-4-carboxylic acid (2-amino-ethyl)-methyl-amide, trifluoro-acetic acid salt] as the compound, how does the “% Inhibition at 10 uM” value read?
A: 64.52%

Q: How did the “% Inhibition at 10 uM” value turn out when `CC(C)(O)CNC(=O)c1cc(-c2ccc(Cl)c(Cl)c2)ncn1` [6-(3,4-Dichloro-phenyl)-pyrimidine-4-carboxylic acid (2-hydroxy-2-methyl-propyl)-amide] was run?
A: 57.19%

Q: `Cc1cnc(NC(=O)c2cc(-c3ccc(Cl)c(Cl)c3)ncn2)c(C)n1` [6-(3,4-Dichloro-phenyl)-pyrimidine-4-carboxylic acid (3,5-dimethyl-pyrazin-2-yl)-amide] was tested. Which “% Inhibition at 10 uM” value did it give?
A: 97.84%

Q: With `Cc1nsc(NC(=O)c2cc(-c3ccc(Cl)c(Cl)c3)ncn2)n1` [6-(3,4-Dichloro-phenyl)-pyrimidine-4-carboxylic acid (3-methyl-[1,2,4]-thiadiazol-5-yl)-amide] as the compound, how does the “% Inhibition at 10 uM” value read?
A: 100.16%

Q: Which “% Inhibition at 10 uM” value does the source give for `Cl.O=C(Nc1cccc(N2CCOCC2)c1)c1cc(-c2ccc(Cl)c(Cl)c2)ncn1` [6-(3,4-Dichloro-phenyl)-pyrimidine-4-carboxylic acid (3-morpholin-4-yl-phenyl)-amide hydrochloride salt] here?
A: 99.76%

Q: With `O=C(Nc1cccc(N2CCOCC2)c1)c1cc(-c2ccc(Cl)c(Cl)c2)ncn1` [6-(3,4-Dichloro-phenyl)-pyrimidine-4-carboxylic acid (3-morpholin-4-yl-phenyl)-amide] as the compound, how does the “% Inhibition at 10 uM” value read?
A: 100.15%
